Source: patent US20260159536A1, “AKR1C3-ACTIVATED DNA ALKYLATING AGENT, AND MEDICAL APPLICATION THEREOF” (ASCENTAWITS PHARMACEUTICALS, LTD., priority 2021, published 2026)

Experiment: in vitro
Conditions: for % Remaining: with NADPH and AST-3021
Description: (1) Compound A for test, progesterone positive control, and 100 mM stock solutions of AST-3021 inhibitor were prepared and stored in the freezer (−10° C. to −30° C.).
1) Negative control group: at different time points (0 and 60 min), 30 μL/well of hepatocyte cytosol suspension containing 7.5 μM of sample for test was distributed in a 96-well plate. Three replicate wells were prepared in parallel.
2) Positive control group: at different time points (0, 5, 15, 30, 45 and 60 min), 30 μL/well of hepatocyte cytosol suspension containing 7.5 μM of the positive control was distributed in a 96-well plate. Three replicate wells were prepared in parallel.
3) Normal reaction group: at different time points (0, 5, 15, 30, 45 and 60 min), 30 μL/well of hepatocyte cytosol suspension containing 7.5 μM of sample for test was distributed in a 96-well plate. Three replicate wells were prepared in parallel.
4) Inhibition reaction group: at different time points (0, 5, 15, 30, 45 and 60 min), 30 μL/well of hepatocyte cytosol suspension containing […] of sample for test and 4.5 μM of the inhibitor was distributed in a 96-well plate. Three replicate wells were prepared in parallel.
6) 0 min samples: after 150 μL/well of acetonitrile containing the internal standard was added, then 15 μL/well of pre-heated NADPH working solution was added to the samples of normal reaction group, inhibition reaction group and positive control group, and 15 μL/well of pre-heated potassium phosphate buffer was added to the samples of negative control group.
7) Other samples (5, 15, 30, 45 and 60 min): for normal reaction group, inhibition reaction group and positive control group, 15 μL/well of pre-heated NADPH working solution was added to start the reaction; for negative control group, 15 μL/well of pre-heated potassium phosphate buffer was added. The reaction plates were then continued to incubate in a 37° C. water bath and the reactions were stopped by the addition of 150 μL/well of stop solution at the corresponding time points (5, 15, 30, 45 and 60 min).
The concentration of analyte in each sample was expressed as a peak area ratio (peak area analyte/peak areainternal standard), then the peak area ratio at 0 min was used as a reference to calculate the % Remaining at each time point of the incubation, and the ln logarithmic value of the % Remaining was linearly fitted to the incubation time and the half-life was calculated according to the following formula.
In the absence of AST-3021, 5 μM of progesterone was co-incubated with 2 mM of NADPH and 1 mg/mL of hepatocyte cytosol for 0-60 min as a positive control.

Compound: O=[N+]([O-])c1ccc(C(OP(=O)(N2CC2)N2CC2)C(F)(F)F)cc1Oc1ccc(-c2ccc(F)cc2)c(F)c1 (racemic) [Compound A]
- Metabolic parameter k (monkey, 2 mM NADPH, no AST-3021 (normal reaction / positive control group), 5 μM): 0.0046
- average % Remaining (monkey, 2 mM NADPH, no AST-3021 (normal reaction / positive control group), 5 μM, 0 min): 100.00%
- average % Remaining (monkey, 2 mM NADPH, no AST-3021 (normal reaction / positive control group), 5 μM, 5 min): 98.89%
- average % Remaining (monkey, 2 mM NADPH, no AST-3021 (normal reaction / positive control group), 5 μM, 15 min): 94.52%
- average % Remaining (monkey, 2 mM NADPH, no AST-3021 (normal reaction / positive control group), 5 μM, 30 min): 89.81%
- average % Remaining (monkey, 2 mM NADPH, no AST-3021 (normal reaction / positive control group), 5 μM, 45 min): 83.43%
- average % Remaining (monkey, 2 mM NADPH, no AST-3021 (normal reaction / positive control group), 5 μM, 60 min): 73.28%
- Metabolic parameter k (monkey, negative control group (no NADPH, no AST-3021), 5 μM): 0.0040
- average % Remaining (monkey, negative control group (no NADPH, no AST-3021), 5 μM, 0 min): 100.00%
- average % Remaining (monkey, negative control group (no NADPH, no AST-3021), 5 μM, 60 min): 78.57%
- average % Remaining (mouse, 60 min, no NADPH, no AST-3021): 83.01%
- average % Remaining (mouse, 60 min, with NADPH, no AST-3021): 88.89%
- % Remaining (mouse): 74.94%
- Metabolic parameter k (mouse, 2 mM NADPH + 3 μM AST-3021 (inhibition reaction group), 5 μM): 0.0041
- average % Remaining (mouse, 2 mM NADPH + 3 μM AST-3021 (inhibition reaction group), 5 μM, 0 min): 100.00%
- average % Remaining (mouse, 2 mM NADPH + 3 μM AST-3021 (inhibition reaction group), 5 μM, 5 min): 90.76%
- average % Remaining (mouse, 2 mM NADPH + 3 μM AST-3021 (inhibition reaction group), 5 μM, 15 min): 87.29%
- average % Remaining (mouse, 2 mM NADPH + 3 μM AST-3021 (inhibition reaction group), 5 μM, 30 min): 85.00%
- average % Remaining (mouse, 2 mM NADPH + 3 μM AST-3021 (inhibition reaction group), 5 μM, 45 min): 82.33%
- average % Remaining (mouse, 2 mM NADPH + 3 μM AST-3021 (inhibition reaction group), 5 μM, 60 min): 74.94%
- Metabolic parameter k (mouse, 2 mM NADPH, no AST-3021 (normal reaction / positive control group), 5 μM): 0.0014
- average % Remaining (mouse, 2 mM NADPH, no AST-3021 (normal reaction / positive control group), 5 μM, 0 min): 100.00%
- average % Remaining (mouse, 2 mM NADPH, no AST-3021 (normal reaction / positive control group), 5 μM, 5 min): 99.18%
- average % Remaining (mouse, 2 mM NADPH, no AST-3021 (normal reaction / positive control group), 5 μM, 15 min): 109.17%
- average % Remaining (mouse, 2 mM NADPH, no AST-3021 (normal reaction / positive control group), 5 μM, 30 min): 95.86%
- average % Remaining (mouse, 2 mM NADPH, no AST-3021 (normal reaction / positive control group), 5 μM, 45 min): 95.38%
- average % Remaining (mouse, 2 mM NADPH, no AST-3021 (normal reaction / positive control group), 5 μM, 60 min): 88.89%
- Metabolic parameter k (mouse, negative control group (no NADPH, no AST-3021), 5 μM): 0.0031
- average % Remaining (mouse, negative control group (no NADPH, no AST-3021), 5 μM, 0 min): 100.00%
- average % Remaining (mouse, negative control group (no NADPH, no AST-3021), 5 μM, 60 min): 83.01%
- average % Remaining (rat, 60 min, no NADPH, no AST-3021): 68.42%
- average % Remaining (rat, 60 min, with NADPH, no AST-3021): 71.72%
- % Remaining (rat): 63.81%
- Metabolic parameter k (rat, 2 mM NADPH + 3 μM AST-3021 (inhibition reaction group), 5 μM): 0.0068
- average % Remaining (rat, 2 mM NADPH + 3 μM AST-3021 (inhibition reaction group), 5 μM, 0 min): 100.00%
- average % Remaining (rat, 2 mM NADPH + 3 μM AST-3021 (inhibition reaction group), 5 μM, 5 min): 88.10%
- average % Remaining (rat, 2 mM NADPH + 3 μM AST-3021 (inhibition reaction group), 5 μM, 15 min): 86.23%
- average % Remaining (rat, 2 mM NADPH + 3 μM AST-3021 (inhibition reaction group), 5 μM, 30 min): 83.84%
- average % Remaining (rat, 2 mM NADPH + 3 μM AST-3021 (inhibition reaction group), 5 μM, 45 min): 78.06%
- average % Remaining (rat, 2 mM NADPH + 3 μM AST-3021 (inhibition reaction group), 5 μM, 60 min): 63.81%
- Metabolic parameter k (rat, 2 mM NADPH, no AST-3021 (normal reaction / positive control group), 5 μM): 0.0053
- average % Remaining (rat, 2 mM NADPH, no AST-3021 (normal reaction / positive control group), 5 μM, 0 min): 100.00%
- average % Remaining (rat, 2 mM NADPH, no AST-3021 (normal reaction / positive control group), 5 μM, 5 min): 90.07%
- average % Remaining (rat, 2 mM NADPH, no AST-3021 (normal reaction / positive control group), 5 μM, 15 min): 90.26%
- average % Remaining (rat, 2 mM NADPH, no AST-3021 (normal reaction / positive control group), 5 μM, 30 min): 84.80%
- average % Remaining (rat, 2 mM NADPH, no AST-3021 (normal reaction / positive control group), 5 μM, 45 min): 81.99%
- average % Remaining (rat, 2 mM NADPH, no AST-3021 (normal reaction / positive control group), 5 μM, 60 min): 71.72%
- Metabolic parameter k (rat, negative control group (no NADPH, no AST-3021), 5 μM): 0.0063
- average % Remaining (rat, negative control group (no NADPH, no AST-3021), 5 μM, 0 min): 100.00%
- average % Remaining (rat, negative control group (no NADPH, no AST-3021), 5 μM, 60 min): 68.42%
